row,Structure (SMILES),melting point
1,"Cn1c(S(=O)(=O)c2ccc(=O)[nH]n2)cc2ccccc21 [Example 40, 6-(N-Methylindole-2-sulfonyl)-2H-pyridazin-3-one]",233 to 235 °C
2,"O=c1ccc(S(=O)(=O)c2oc3ccccc3c2O)n[nH]1 [Example 16, 6-(3-Hydroxy-benzofuran-2-sulfonyl)-2H-pyridazin-3-one]",186 to 189 °C
3,"O=c1ccc(S(=O)(=O)c2[nH]c3ccccc3c2Cl)n[nH]1 [Example 36, 6-(3-Chloro-indole-2-sulfonyl)-2H-pyridazin-3-one]",250 °C

# Reference: patent US20050004124A1, “THERAPIES RELATING TO COMBINATIONS OF ALDOSE REDUCTASE INHIBITORS AND CYCLOOXYGENASE-2 INHIBITORS” (priority 2001, published 2005)
